{"source": "paper PMC12298648", "about": "“An Evaluation of the Cytotoxicity and Safety Profile of Usnic Acid for a Broad Panel of Human Cancers and Normal Cells with Respect to Its Enantiospecificity” (Molecules, 2025)", "key": {"HCT116": {"system": "HCT116", "assay": "MTT viability assay, HCT116 colon cancer cells", "format": "cell-based, human", "conditions": "for Cell viability: HCT116, 24 h; for IC50: Homo sapiens, HCT-116", "description": "(§1) Cell lines of different origins were used in the study and grouped as follows: prostate panel (human prostate carcinomas: DU145, derived from metastatic site: brain; grade IV PC3, derived from metastatic site: bone; LNCaP, derived from the metastatic site: lymph node; prostate epithelial, PNT2), colon panel (colorectal adenocarcinomas: HT29, originating from a primary tumor; Duke’s type C DLD-1, with the potential to lymph node metastasis; highly metastatic HCT116; colon epithelial cells CCD 841 CoN), thyroid panel (follicular thyroid carcinoma FTC133, anaplastic thyroid carcinoma 8505C, papillary thyroid carcinoma TPC-1, normal thyroid follicular epithelial Nthy-ori 3–1), breast panel (ER-positive breast adenocarcinoma MCF7, ER-negative breast adenocarcinoma MDA-MB-231, breast epithelial MCF10A), brain panel (neuroblastoma SH-SY5Y, glioblastoma U-87 MG, murine astrocytes C8D1A). All cell lines were purchased from Merck (Darmstadt, Germany).\n(§2) Cells were grown under standard conditions (37 °C, 5% CO2) and culture media (DMEM/F12 for PNT2, PC3, FTC133, 8505 C, MDA-MB-231, TPC-1; DMEM Low Glucose for DU145; DMEM High Glucose for HCT116, DLD-1, SH-SY5Y, U87MG, C8D1A; MEM with NEAA for MCF7; MEM for CCD 841 CoN; McCoy’s for HT29; RPMI1640 with sodium pyruvate for LNCaP; DMEM/F12 with 20 ng/mL epidermal growth factor (EGF), 10 μg/mL insulin, 0.5 μg/mL hydrocortisone, 100 ng/mL cholera toxin) for MCF10A), supplemented with 10% fetal bovine serum (FBS) or 5% donor horse serum for MCF10A, and 1% antibiotics solution (10,000 U penicillin and 10 mg streptomycin/mL). The tested substances were prepared as 10 mg/mL stock solutions in DMSO and further diluted in the culture media to the working concentrations. Cells were treated with UA enantiomers at the concentration range of 0–50 µg/mL. The influence of DMSO on cell viability was also examined, with the final concentration […], and no toxic effect was noted.\n(§3) The cells were seeded onto 96-well plates at a density of 1.5 × 10^4 cells/well. After 24 h UA enantiomers were added. Cell viability was determined after 24, 48, and 72 h by the MTT assay, as described previously. Doxorubicin was used as a reference cytostatic drug. All analyses were performed in triplicate; cell viability was expressed as % of control, untreated cells (mean ± SD), and IC50 values (concentration at which cell viability is inhibited by 50%), if possible."}, "CCD 841 CoN": {"system": "CCD 841 CoN", "assay": "MTT viability assay, normal colon epithelial cells", "format": "cell-based, human", "conditions": "for Cell viability: CCD 841 CoN, 24 h; for IC50: Homo sapiens, CCD-841CoN", "description": "as §1, §2, §3"}, "PC3": {"system": "PC3", "assay": "MTT viability assay, PC3 prostate cancer cells", "format": "cell-based, human", "conditions": "for IC50: Homo sapiens, PC-3; for Cell viability: PC3, 24 h", "description": "as §1, §2, §3\n(§4) The selectivity index (SI) was calculated, if possible, by dividing the IC50 value obtained for non-cancerous cells line by the IC50 values obtained for appropriate cancer cell line, as described previously. […] The values above 3 indicate good selectivity."}, "8505C": {"system": "8505C", "assay": "MTT viability assay, 8505C anaplastic thyroid carcinoma cells", "format": "cell-based, human", "conditions": "for Cell viability: 24 h; for IC50: Homo sapiens", "description": "as §1, §2, §3"}, "FTC133": {"system": "FTC133", "assay": "MTT viability assay, FTC133 follicular thyroid carcinoma cells", "format": "cell-based, human", "conditions": "for Cell viability: FTC-133, 24 h; for IC50: Homo sapiens, FTC-133", "description": "as §1, §2, §3, §4"}, "MCF10A": {"system": "MCF10A", "assay": "MTT viability assay, normal breast epithelial cells", "format": "cell-based, human", "conditions": "for IC50: Homo sapiens, MCF-10A, MCF10A normal cells; for Cell viability: MCF10A, 24 h", "description": "as §1, §2, §3"}, "U87MG": {"system": "U87MG", "assay": "MTT viability assay, glioblastoma U87MG cells", "format": "cell-based, human", "conditions": "24 h", "description": "as §1, §2, §3"}, "DU145 cells": {"system": "DU145 cells", "conditions": "cited from earlier work"}, "MCF7 cells": {"system": "MCF7 cells", "set-up": "method as in not printed ('another' study)", "conditions": "MCF7, 72 h, ref not given ('another' study), cited from earlier work"}, "HepG2 cells": {"system": "HepG2 cells", "set-up": "method as in PMID 40368021", "conditions": "cited from earlier work"}}, "note": "Read-outs that look alike come from different tables or passages of the source."}
{"smiles": "CC(=O)C1=C(O)C=C2Oc3c(C(C)=O)c(O)c(C)c(O)c3[C@@]2(C)C1=O", "note": "[UA(+), (+)-usnic acid]", "values": [{"measurement": "Cell viability", "setting": "HCT116; 2.5 µg/mL", "result": "100.35 % of control"}, {"measurement": "Cell viability", "setting": "HCT116; 5 µg/mL", "result": "103.97 % of control"}, {"measurement": "Cell viability", "setting": "HCT116; 10 µg/mL", "result": "85.60 % of control"}, {"measurement": "Cell viability", "setting": "HCT116; 20 µg/mL", "result": "71.99 % of control"}, {"measurement": "Cell viability", "setting": "HCT116; 30 µg/mL", "result": "68.16 % of control"}, {"measurement": "Cell viability", "setting": "HCT116; 40 µg/mL", "result": "67.02 % of control"}, {"measurement": "Cell viability", "setting": "HCT116; 50 µg/mL", "result": "61.49 % of control"}, {"measurement": "IC50", "setting": "HCT116; HCT116, 48 h", "result": 26.4, "unit": "µg/mL"}, {"measurement": "IC50", "setting": "HCT116; HCT116, 72 h", "result": 10.5, "unit": "µg/mL"}, {"measurement": "Cell viability", "setting": "CCD 841 CoN; 2.5 µg/mL", "result": "104.22 % of control"}, {"measurement": "Cell viability", "setting": "CCD 841 CoN; 5 µg/mL", "result": "103.61 % of control"}, {"measurement": "Cell viability", "setting": "CCD 841 CoN; 10 µg/mL", "result": "99.72 % of control"}, {"measurement": "Cell viability", "setting": "CCD 841 CoN; 20 µg/mL", "result": "111.77 % of control"}, {"measurement": "Cell viability", "setting": "CCD 841 CoN; 30 µg/mL", "result": "101.26 % of control"}, {"measurement": "Cell viability", "setting": "CCD 841 CoN; 40 µg/mL", "result": "95.35 % of control"}, {"measurement": "Cell viability", "setting": "CCD 841 CoN; 50 µg/mL", "result": "96.52 % of control"}, {"measurement": "IC50", "setting": "CCD 841 CoN; 48 h", "result": "> 50", "unit": "µg/mL"}, {"measurement": "IC50", "setting": "CCD 841 CoN; 72 h", "result": "> 50", "unit": "µg/mL"}, {"measurement": "IC50", "setting": "PC3; PC3, 48 h", "result": 39.6, "unit": "µg/mL"}, {"measurement": "IC50", "setting": "PC3; PC3, 72 h", "result": 19.1, "unit": "µg/mL"}, {"measurement": "selectivity index (SI)", "setting": "PC3; IC50 PNT2 / IC50 PC3, 48 h", "result": 0.94}, {"measurement": "selectivity index (SI)", "setting": "PC3; IC50 PNT2 / IC50 PC3, 72 h", "result": 1.07}, {"measurement": "Cell viability", "setting": "PC3; 2.5 µg/mL", "result": "100.80 % of control"}, {"measurement": "Cell viability", "setting": "PC3; 5 µg/mL", "result": "99.30 % of control"}, {"measurement": "Cell viability", "setting": "PC3; 10 µg/mL", "result": "104.63 % of control"}, {"measurement": "Cell viability", "setting": "PC3; 20 µg/mL", "result": "96.62 % of control"}, {"measurement": "Cell viability", "setting": "PC3; 30 µg/mL", "result": "83.08 % of control"}, {"measurement": "Cell viability", "setting": "PC3; 40 µg/mL", "result": "70.10 % of control"}, {"measurement": "Cell viability", "setting": "PC3; 50 µg/mL", "result": "64.83 % of control"}, {"measurement": "Cell viability", "setting": "8505C; 2.5 µg/mL", "result": "102.52 % of control"}, {"measurement": "Cell viability", "setting": "8505C; 5 µg/mL", "result": "103.05 % of control"}, {"measurement": "Cell viability", "setting": "8505C; 10 µg/mL", "result": "98.80 % of control"}, {"measurement": "Cell viability", "setting": "8505C; 20 µg/mL", "result": "102.26 % of control"}, {"measurement": "Cell viability", "setting": "8505C; 30 µg/mL", "result": "99.47 % of control"}, {"measurement": "Cell viability", "setting": "8505C; 40 µg/mL", "result": "102.26 % of control"}, {"measurement": "Cell viability", "setting": "8505C; 50 µg/mL", "result": "108.63 % of control"}, {"measurement": "IC50", "setting": "8505C; 48 h", "result": "> 50", "unit": "µg/mL"}, {"measurement": "IC50", "setting": "8505C; 72 h", "result": "> 50", "unit": "µg/mL"}, {"measurement": "Cell viability", "setting": "FTC133; 2.5 µg/mL", "result": "92.33 % of control"}, {"measurement": "Cell viability", "setting": "FTC133; 5 µg/mL", "result": "89.00 % of control"}, {"measurement": "Cell viability", "setting": "FTC133; 10 µg/mL", "result": "89.83 % of control"}, {"measurement": "Cell viability", "setting": "FTC133; 20 µg/mL", "result": "93.83 % of control"}, {"measurement": "Cell viability", "setting": "FTC133; 30 µg/mL", "result": "74.75 % of control"}, {"measurement": "Cell viability", "setting": "FTC133; 40 µg/mL", "result": "75.75 % of control"}, {"measurement": "Cell viability", "setting": "FTC133; 50 µg/mL", "result": "78.08 % of control"}, {"measurement": "IC50", "setting": "FTC133; FTC133, 48 h", "result": "> 50", "unit": "µg/mL"}, {"measurement": "IC50", "setting": "FTC133; FTC133, 72 h", "result": 35.1, "unit": "µg/mL"}, {"measurement": "selectivity index (SI)", "setting": "FTC133; IC50 Nthy ori 3-1 / IC50 FTC133, 72 h", "result": 0.95}, {"measurement": "IC50", "setting": "MCF10A; 48 h", "result": "> 50", "unit": "µg/mL"}, {"measurement": "IC50", "setting": "MCF10A; 72 h", "result": 44.8, "unit": "µg/mL"}, {"measurement": "Cell viability", "setting": "MCF10A; 2.5 µg/mL", "result": "95.69 % of control"}, {"measurement": "Cell viability", "setting": "MCF10A; 5 µg/mL", "result": "98.53 % of control"}, {"measurement": "Cell viability", "setting": "MCF10A; 10 µg/mL", "result": "94.31 % of control"}, {"measurement": "Cell viability", "setting": "MCF10A; 20 µg/mL", "result": "97.06 % of control"}, {"measurement": "Cell viability", "setting": "MCF10A; 30 µg/mL", "result": "97.25 % of control"}, {"measurement": "Cell viability", "setting": "MCF10A; 40 µg/mL", "result": "97.35 % of control"}, {"measurement": "Cell viability", "setting": "MCF10A; 50 µg/mL", "result": "94.02 % of control"}, {"measurement": "Cell viability", "setting": "U87MG; 5 µg/mL", "result": "99.21 % of control"}, {"measurement": "Cell viability", "setting": "U87MG; 10 µg/mL", "result": "98.61 % of control"}, {"measurement": "Cell viability", "setting": "U87MG; 30 µg/mL", "result": "101.76 % of control"}, {"measurement": "Cell viability", "setting": "U87MG; 40 µg/mL", "result": "92.73 % of control"}, {"measurement": "Cell viability", "setting": "U87MG; 50 µg/mL", "result": "95.00 % of control"}, {"measurement": "IC50", "setting": "DU145 cells; DU145, 48 h, recalculated from µM by the authors", "result": 14.5, "unit": "µg/mL"}, {"measurement": "IC50", "setting": "DU145 cells; DU145, 48 h, read-out: IC50", "result": 42.1, "unit": "µM"}, {"measurement": "IC50", "setting": "DU145 cells; DU145, 72 h, recalculated from µM by the authors", "result": 19.7, "unit": "µg/mL"}, {"measurement": "IC50", "setting": "DU145 cells; DU145, 72 h, read-out: IC50", "result": 57.4, "unit": "µM"}, {"measurement": "IC50", "setting": "MCF7 cells; recalculated from µM by the authors", "result": 36.3, "unit": "µg/mL"}, {"measurement": "IC50", "setting": "MCF7 cells; read-out: IC50", "result": 105, "unit": "µM"}, {"measurement": "IC50 (hepatotoxicity)", "setting": "HepG2 cells; HepG2, 48 h", "result": 28.2, "unit": "µg/mL"}, {"measurement": "IC50 (hepatotoxicity)", "setting": "HepG2 cells; HepG2, 72 h", "result": 24.4, "unit": "µg/mL"}]}
